# Measurements from ChEMBL document CHEMBL1135773, “Purine and pyrimidine (P2) receptors as drug targets” (J Med Chem, 2002).
# Assays:
# P2X purinoceptor 2 [1] = target: P2X purinoceptor 2 (Homo sapiens, UniProt Q9UBL9); experiment: The compound was evaluated for antagonist activity against recombinant human receptor P2X purinoceptor 2 (P2X2 ); type: functional
# P2X purinoceptor 1 [2] = target: T1, P2X purinoceptor 1 (Homo sapiens, UniProt P51575); experiment: Antagonist activity against recombinant human P2X purinoceptor 1 (P2X1 ); type: functional
# T1 sequence (P51575 whole entry): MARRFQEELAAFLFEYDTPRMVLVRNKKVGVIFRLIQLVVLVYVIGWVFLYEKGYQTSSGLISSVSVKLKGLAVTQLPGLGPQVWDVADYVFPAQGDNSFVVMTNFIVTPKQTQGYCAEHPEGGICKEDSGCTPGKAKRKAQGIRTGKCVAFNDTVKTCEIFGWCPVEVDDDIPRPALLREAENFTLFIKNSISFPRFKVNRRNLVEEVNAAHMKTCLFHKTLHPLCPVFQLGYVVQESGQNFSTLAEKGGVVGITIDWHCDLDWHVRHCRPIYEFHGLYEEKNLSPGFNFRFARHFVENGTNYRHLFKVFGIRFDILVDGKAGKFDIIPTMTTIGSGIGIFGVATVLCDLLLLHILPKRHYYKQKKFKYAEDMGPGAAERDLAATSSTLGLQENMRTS
# P2Y purinoceptor 2 = P2Y purinoceptor 2 (Homo sapiens, UniProt P41231); experiment: Evaluated for agonist activity against phospholipase C coupled recombinant human P2Y purinoceptor 2 (P2Y2); type: functional
# P2X purinoceptor 3 [3] = target: T2, P2X purinoceptor 3 (Homo sapiens, UniProt P56373); experiment: Antagonist activity against recombinant human P2X purinoceptor 3 (P2X3 ); type: functional
# T2 sequence (P56373 whole entry): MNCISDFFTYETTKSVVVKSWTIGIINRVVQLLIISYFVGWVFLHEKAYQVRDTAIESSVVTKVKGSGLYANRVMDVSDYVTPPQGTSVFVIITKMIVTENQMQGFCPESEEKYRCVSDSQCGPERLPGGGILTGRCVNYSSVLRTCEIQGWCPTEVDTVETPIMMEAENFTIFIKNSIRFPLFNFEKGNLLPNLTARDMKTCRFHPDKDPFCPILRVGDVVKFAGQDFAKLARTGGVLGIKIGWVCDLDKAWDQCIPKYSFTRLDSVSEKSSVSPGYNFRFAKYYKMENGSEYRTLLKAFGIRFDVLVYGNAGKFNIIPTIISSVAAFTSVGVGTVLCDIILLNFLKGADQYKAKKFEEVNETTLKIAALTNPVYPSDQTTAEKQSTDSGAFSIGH
# P2Y purinoceptor 4 = P2Y purinoceptor 4 (Rattus norvegicus, UniProt O35811); experiment: The compound was evaluated for antagonist activity against phospholipase C coupled recombinant rat P2Y purinoceptor 4 (P2Y4); type: functional
# P2X purinoceptor 4 [4] = target: T3, P2X purinoceptor 4 (Homo sapiens, UniProt Q99571); experiment: Antagonist activity against recombinant human P2X purinoceptor 4 (P2X4); type: functional
# T3 sequence (Q99571 whole entry): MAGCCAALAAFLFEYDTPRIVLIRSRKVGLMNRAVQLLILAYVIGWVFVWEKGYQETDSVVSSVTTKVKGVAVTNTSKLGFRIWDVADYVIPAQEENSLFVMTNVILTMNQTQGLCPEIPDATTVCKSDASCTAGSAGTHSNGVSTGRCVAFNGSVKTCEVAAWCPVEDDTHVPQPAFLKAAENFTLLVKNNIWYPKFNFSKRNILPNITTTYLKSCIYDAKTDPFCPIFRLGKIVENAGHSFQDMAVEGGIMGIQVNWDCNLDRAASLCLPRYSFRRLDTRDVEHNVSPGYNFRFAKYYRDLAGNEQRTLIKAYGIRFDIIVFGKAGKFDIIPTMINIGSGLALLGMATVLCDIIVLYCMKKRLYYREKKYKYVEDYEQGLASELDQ
# P2X purinoceptor 7 = target: T4, P2X purinoceptor 7 (Homo sapiens, UniProt Q99572); experiment: Antagonist activity against recombinant human P2X purinoceptor 7 (P2X7); type: functional
# T4 sequence (Q99572 whole entry): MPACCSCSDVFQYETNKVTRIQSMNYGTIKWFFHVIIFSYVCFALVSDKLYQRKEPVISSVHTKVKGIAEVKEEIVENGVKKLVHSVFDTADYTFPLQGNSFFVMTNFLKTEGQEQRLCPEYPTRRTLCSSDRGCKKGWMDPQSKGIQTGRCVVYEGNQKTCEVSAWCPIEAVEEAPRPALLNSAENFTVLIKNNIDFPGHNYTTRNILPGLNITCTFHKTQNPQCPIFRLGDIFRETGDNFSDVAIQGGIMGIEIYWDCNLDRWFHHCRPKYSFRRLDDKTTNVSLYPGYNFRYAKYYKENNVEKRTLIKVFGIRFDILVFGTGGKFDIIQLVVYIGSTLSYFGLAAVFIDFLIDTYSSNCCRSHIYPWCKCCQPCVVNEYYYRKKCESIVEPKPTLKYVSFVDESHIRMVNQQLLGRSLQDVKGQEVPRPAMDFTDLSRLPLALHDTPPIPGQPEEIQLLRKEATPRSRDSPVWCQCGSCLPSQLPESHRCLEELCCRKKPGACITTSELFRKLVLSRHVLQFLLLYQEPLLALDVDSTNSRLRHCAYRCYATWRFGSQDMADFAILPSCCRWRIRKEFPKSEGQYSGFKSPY
# P2Y purinoceptor 6 = P2Y purinoceptor 6 (Homo sapiens, UniProt Q15077); experiment: The compound was evaluated for agonist activity against phospholipase C coupled recombinant human P2Y purinoceptor 6 (P2Y6); type: functional
# P2Y purinoceptor 1 [5] = target: P2Y purinoceptor 1 (Homo sapiens, UniProt P47900); experiment: Evaluated for agonist activity against phospholipase C coupled P2Y purinoceptor 1 (P2Y1) of human erythrocytes; type: functional
# P2Y purinoceptor 11 = target: T5, P2Y purinoceptor 11 (Homo sapiens, UniProt Q96G91); experiment: Agonist activity against phospholipase C coupled human P2Y purinoceptor 11 (P2Y11); type: functional
# T5 sequence (Q96G91 whole entry): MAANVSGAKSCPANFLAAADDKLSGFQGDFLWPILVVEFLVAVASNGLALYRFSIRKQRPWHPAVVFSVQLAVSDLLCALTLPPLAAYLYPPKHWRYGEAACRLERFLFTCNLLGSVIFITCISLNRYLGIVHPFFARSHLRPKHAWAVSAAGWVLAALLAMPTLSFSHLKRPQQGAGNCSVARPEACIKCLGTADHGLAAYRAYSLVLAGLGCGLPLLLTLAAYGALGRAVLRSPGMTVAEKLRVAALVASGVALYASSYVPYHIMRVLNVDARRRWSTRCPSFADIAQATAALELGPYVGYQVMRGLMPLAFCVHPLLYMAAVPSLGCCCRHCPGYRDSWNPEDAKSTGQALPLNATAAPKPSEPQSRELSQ
# P2X purinoceptor 1 [6] = target: T6, P2X purinoceptor 1 (Rattus norvegicus, UniProt P47824); experiment: The compound was evaluated for antagonist activity against recombinant rat P2X purinoceptor 1 (P2X1); type: functional
# T6 sequence (P47824 whole entry): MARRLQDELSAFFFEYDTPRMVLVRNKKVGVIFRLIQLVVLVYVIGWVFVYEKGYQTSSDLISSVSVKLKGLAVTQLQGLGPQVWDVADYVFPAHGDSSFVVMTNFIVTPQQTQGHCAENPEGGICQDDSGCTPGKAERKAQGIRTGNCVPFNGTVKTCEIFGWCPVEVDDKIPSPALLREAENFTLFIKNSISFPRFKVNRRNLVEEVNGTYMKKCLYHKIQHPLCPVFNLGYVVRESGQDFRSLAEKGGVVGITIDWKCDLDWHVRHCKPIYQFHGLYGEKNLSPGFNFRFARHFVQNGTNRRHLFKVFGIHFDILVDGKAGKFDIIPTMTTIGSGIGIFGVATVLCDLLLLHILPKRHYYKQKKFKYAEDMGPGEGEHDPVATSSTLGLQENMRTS
# P2X purinoceptor 3 [7] = target: T2, P2X purinoceptor 3; experiment: The compound was evaluated for antagonist activity against recombinant human P2X purinoceptor 3 (P2X3 ); type: functional
# P2X purinoceptor 4 [8] = target: T7, P2X purinoceptor 4 (Rattus norvegicus, UniProt P51577); experiment: Antagonist activity against recombinant rat P2X purinoceptor 4 (P2X4) at 30 uM, expressed in Xenopus oocytes; type: functional, cell-based, Oocyte
# T7 sequence (P51577 whole entry): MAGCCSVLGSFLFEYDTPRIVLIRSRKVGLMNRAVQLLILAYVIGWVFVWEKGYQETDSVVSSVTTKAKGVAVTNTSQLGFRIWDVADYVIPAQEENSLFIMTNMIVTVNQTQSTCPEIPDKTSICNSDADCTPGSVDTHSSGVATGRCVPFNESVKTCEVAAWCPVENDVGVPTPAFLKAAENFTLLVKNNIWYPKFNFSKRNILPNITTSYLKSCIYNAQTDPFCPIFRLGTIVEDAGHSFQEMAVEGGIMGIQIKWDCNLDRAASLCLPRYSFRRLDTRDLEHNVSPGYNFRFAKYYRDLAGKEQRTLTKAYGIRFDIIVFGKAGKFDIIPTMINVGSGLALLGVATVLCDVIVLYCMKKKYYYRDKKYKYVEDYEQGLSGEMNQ
# P2Y purinoceptor 12 = P2Y purinoceptor 12 (Rattus norvegicus, UniProt Q9EPX4); experiment: Antagonist activity against phospholipase C coupled rat P2Y purinoceptor 12 (P2Y12); type: functional
# P2Y purinoceptor 1 [9] = target: P2Y purinoceptor 1 (Meleagris gallopavo, UniProt P49652); experiment: Evaluated for agonist activity against phospholipase C coupled P2Y purinoceptor 1 (P2Y1) of turkey erythrocytes; type: functional
# P2X purinoceptor 6 = P2X purinoceptor 6 (Rattus norvegicus, UniProt P51579); experiment: Antagonist activity against recombinant rat P2X purinoceptor 6 (P2X6 ); type: functional
# P2X purinoceptor 5 = target: T8, P2X purinoceptor 5 (Rattus norvegicus, UniProt P51578); experiment: Antagonist activity against recombinant rat P2X purinoceptor 5 (P2X5); type: functional
# T8 sequence (P51578 whole entry): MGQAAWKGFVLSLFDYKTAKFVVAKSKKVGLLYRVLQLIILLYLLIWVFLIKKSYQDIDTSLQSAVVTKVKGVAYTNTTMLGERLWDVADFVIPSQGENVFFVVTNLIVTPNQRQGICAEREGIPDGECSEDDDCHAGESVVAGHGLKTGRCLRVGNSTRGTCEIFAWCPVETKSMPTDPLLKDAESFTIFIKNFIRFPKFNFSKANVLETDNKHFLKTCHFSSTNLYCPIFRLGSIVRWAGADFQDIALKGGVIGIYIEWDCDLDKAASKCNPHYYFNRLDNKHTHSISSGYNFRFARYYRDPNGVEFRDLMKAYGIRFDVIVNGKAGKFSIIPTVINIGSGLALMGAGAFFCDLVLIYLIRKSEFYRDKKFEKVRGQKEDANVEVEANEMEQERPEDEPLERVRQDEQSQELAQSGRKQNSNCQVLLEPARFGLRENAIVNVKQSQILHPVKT
# P2X purinoceptor 2 [10] = target: T9, P2X purinoceptor 2 (Rattus norvegicus, UniProt P49653); experiment: Antagonist activity against recombinant rat receptor P2X purinoceptor 2 (P2X2) at 10 uM, expressed in Xenopus oocytes; type: functional, cell-based, Oocyte
# T9 sequence (P49653 whole entry): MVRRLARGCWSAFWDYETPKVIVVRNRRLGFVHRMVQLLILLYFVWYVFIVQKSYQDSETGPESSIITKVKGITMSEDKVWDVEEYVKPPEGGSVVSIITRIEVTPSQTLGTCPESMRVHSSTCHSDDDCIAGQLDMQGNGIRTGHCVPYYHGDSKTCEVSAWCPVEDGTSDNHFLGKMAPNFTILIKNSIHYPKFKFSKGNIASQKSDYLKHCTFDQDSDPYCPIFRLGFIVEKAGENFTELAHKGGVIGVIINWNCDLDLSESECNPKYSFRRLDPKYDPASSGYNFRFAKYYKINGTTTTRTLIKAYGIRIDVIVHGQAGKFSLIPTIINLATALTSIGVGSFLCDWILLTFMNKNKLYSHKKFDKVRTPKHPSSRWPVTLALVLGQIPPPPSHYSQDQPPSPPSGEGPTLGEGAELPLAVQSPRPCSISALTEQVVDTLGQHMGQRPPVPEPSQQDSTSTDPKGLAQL
# Chain of P2Y purinoceptor 2 (P41231 whole entry): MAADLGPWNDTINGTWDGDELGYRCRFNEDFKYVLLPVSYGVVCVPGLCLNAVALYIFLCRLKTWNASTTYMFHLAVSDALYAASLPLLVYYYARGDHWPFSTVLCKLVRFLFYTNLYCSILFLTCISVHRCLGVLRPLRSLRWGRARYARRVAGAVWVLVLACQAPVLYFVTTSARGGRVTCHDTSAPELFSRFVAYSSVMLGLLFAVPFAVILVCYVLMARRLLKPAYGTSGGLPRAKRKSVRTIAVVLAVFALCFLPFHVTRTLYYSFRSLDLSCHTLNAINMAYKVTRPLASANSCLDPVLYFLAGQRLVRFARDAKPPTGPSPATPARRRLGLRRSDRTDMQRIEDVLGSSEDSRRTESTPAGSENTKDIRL
# Chain of P2Y purinoceptor 12 (Q9EPX4 whole entry): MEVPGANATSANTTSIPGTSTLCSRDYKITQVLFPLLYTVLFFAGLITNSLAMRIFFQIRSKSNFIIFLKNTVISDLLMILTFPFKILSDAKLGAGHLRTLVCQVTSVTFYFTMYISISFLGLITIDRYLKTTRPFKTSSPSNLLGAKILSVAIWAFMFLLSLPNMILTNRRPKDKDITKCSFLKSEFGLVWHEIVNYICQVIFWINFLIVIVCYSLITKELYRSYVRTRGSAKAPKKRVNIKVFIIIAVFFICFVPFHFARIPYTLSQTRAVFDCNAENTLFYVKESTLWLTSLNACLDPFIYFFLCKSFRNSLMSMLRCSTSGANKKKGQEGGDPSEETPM
# Chain of P2X purinoceptor 6 (P51579 whole entry): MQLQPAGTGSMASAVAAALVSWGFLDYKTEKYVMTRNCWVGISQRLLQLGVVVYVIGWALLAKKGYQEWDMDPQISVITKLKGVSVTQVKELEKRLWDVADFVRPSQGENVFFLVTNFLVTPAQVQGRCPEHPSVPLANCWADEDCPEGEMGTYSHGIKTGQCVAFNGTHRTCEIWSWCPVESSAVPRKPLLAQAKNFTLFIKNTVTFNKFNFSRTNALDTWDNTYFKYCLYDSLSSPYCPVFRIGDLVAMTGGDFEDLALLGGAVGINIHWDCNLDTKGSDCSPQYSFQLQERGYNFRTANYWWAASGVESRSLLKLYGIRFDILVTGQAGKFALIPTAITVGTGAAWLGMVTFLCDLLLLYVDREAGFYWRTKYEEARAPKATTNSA
# Chain of P2Y purinoceptor 4 (O35811 whole entry): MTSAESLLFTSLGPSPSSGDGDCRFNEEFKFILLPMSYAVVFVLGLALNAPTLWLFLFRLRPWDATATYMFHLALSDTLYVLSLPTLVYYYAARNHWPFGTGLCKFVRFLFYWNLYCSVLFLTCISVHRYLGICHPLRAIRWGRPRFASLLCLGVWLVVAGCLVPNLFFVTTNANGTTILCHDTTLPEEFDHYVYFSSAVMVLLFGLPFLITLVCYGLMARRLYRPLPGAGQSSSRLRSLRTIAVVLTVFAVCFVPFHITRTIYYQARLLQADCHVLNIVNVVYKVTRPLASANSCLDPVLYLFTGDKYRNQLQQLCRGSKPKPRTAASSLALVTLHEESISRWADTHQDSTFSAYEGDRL
# Chain of P2Y purinoceptor 1 (Homo sapiens, UniProt P47900) (P47900 whole entry): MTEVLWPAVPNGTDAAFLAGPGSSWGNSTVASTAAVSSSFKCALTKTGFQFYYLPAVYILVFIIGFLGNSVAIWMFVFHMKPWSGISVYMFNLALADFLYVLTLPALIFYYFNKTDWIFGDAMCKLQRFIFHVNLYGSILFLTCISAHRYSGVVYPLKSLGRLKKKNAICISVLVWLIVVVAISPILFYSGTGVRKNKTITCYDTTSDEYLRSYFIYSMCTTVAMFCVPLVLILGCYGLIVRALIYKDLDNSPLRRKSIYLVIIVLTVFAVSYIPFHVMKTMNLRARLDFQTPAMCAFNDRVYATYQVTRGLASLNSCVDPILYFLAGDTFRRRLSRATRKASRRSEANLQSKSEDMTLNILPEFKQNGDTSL
# Chain of P2X purinoceptor 2 (Homo sapiens, UniProt Q9UBL9) (Q9UBL9 whole entry): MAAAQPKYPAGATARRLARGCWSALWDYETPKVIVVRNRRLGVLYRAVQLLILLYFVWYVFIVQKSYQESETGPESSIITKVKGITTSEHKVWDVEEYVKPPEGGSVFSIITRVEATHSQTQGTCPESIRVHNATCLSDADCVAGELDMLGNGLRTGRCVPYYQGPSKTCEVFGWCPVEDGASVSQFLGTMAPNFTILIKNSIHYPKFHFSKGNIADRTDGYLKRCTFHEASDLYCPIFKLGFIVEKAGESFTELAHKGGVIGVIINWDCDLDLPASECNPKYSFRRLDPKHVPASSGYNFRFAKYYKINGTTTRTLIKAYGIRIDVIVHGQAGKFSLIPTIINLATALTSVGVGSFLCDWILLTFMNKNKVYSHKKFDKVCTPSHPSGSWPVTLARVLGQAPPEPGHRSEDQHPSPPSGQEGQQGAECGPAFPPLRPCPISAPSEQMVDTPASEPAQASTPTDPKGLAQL
# Chain of P2Y purinoceptor 6 (Q15077 whole entry): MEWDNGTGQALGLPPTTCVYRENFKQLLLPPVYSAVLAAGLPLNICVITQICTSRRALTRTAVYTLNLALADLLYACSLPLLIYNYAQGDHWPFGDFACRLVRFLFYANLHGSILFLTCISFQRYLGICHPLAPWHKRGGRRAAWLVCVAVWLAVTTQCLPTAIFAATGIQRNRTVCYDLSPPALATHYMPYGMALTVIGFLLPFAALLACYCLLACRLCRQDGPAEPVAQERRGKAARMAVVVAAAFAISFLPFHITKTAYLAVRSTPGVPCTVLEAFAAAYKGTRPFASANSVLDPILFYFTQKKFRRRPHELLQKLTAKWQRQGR
# Chain of P2Y purinoceptor 1 (Meleagris gallopavo, UniProt P49652) (P49652 whole entry): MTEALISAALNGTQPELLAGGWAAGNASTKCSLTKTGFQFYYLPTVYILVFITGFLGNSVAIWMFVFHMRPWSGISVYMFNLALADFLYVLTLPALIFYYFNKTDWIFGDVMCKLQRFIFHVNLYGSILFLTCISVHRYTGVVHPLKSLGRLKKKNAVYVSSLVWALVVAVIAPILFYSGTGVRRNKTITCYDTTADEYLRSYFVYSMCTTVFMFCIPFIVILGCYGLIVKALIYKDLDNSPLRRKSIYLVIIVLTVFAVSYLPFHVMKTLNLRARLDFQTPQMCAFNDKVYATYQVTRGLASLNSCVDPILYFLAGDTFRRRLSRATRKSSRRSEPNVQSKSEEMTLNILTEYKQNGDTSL
smiles,measurement,setting,value
Nc1ncnc2c1ncn2[C@@H]1O[C@H](COP(=O)(O)OP(=O)(O)OP(=O)(O)OP(=O)(O)OC[C@H]2O[C@@H](n3cnc4c(N)ncnc43)[C@H](O)[C@@H]2O)[C@@H](O)[C@H]1O [DIADENOSINE TETRAPHOSPHATE],EC50,P2X purinoceptor 2 [1],15 µM
same,EC50,P2X purinoceptor 1 [2],0.182 µM
same,EC50,P2Y purinoceptor 2,0.72 µM
same,EC50,P2X purinoceptor 3 [3],0.5 µM
same,EC50,P2Y purinoceptor 4,3 µM
same,EC50,P2X purinoceptor 4 [4],1 µM
CN([C@@H](Cc1ccc(OS(=O)(=O)c2cccc3cnccc23)cc1)C(=O)N1CCN(c2ccccc2)CC1)S(=O)(=O)c1cccc2cnccc12,EC50,P2X purinoceptor 7,0.034 µM
same,EC50,P2X purinoceptor 4 [4],100 µM
O=c1ccn([C@@H]2O[C@H](COP(=O)(O)OP(=O)(O)OP(=O)(O)O)[C@@H](O)[C@H]2O)c(=O)[nH]1 [URIDINE TRIPHOSPHATE],EC50,P2Y purinoceptor 6,6 µM
same,EC50,P2Y purinoceptor 2,0.14 µM
same,EC50,P2Y purinoceptor 1 [5],> 100 µM
same,EC50,P2Y purinoceptor 11,> 100 µM
same,EC50,P2Y purinoceptor 4,2.6 µM
Cc1nc(/N=N/c2cc(S(=O)(=O)O)ccc2S(=O)(=O)O)c(COP(=O)(O)O)c(C=O)c1O [ISOPPADS],EC50,P2X purinoceptor 1 [6],0.043 µM
same,IC50,P2X purinoceptor 3 [7],0.084 µM
Nc1ncnc2c1ncn2[C@@H]1O[C@H](COP(=O)(O)CP(=O)(O)OP(=O)(O)O)[C@@H](O)[C@H]1O [DIPHOSPHOMETHYLPHOSPHONIC ACID ADENOSYL ESTER],EC50,P2X purinoceptor 4 [8],33 µM
same,EC50,P2X purinoceptor 1 [2],0.2 µM
same,EC50,P2Y purinoceptor 12,> 100 µM
same,EC50,P2Y purinoceptor 1 [9],> 100 µM
same,EC50,P2X purinoceptor 6,> 8 µM
same,EC50,P2X purinoceptor 3 [3],0.74 µM
same,EC50,P2X purinoceptor 5,> 7 µM
same,EC50,P2X purinoceptor 7,> 100 µM
same,EC50,P2X purinoceptor 2 [10],100 µM
Nc1ncnc2c1ncn2[C@@H]1O[C@H](COP(=O)(O)OP(=O)(O)O)[C@@H](O)[C@H]1O [ADENOSINE DIPHOSPHATE],EC50,P2X purinoceptor 2 [1],> 100 µM
same,EC50,P2X purinoceptor 4 [8],28 µM
same,EC50,P2X purinoceptor 1 [2],10 µM
same,EC50,P2Y purinoceptor 12,0.069 µM
same,EC50,P2Y purinoceptor 2,> 100 µM
same,EC50,P2X purinoceptor 6,11 µM
same,EC50,P2X purinoceptor 3 [3],> 100 µM
same,EC50,P2X purinoceptor 5,18 µM
O=c1ccn([C@@H]2O[C@H](COP(=O)(O)OP(=O)(O)O)[C@@H](O)[C@H]2O)c(=O)[nH]1 [URIDINE_DIPHOSPHATE],EC50,P2Y purinoceptor 6,0.3 µM
same,EC50,P2Y purinoceptor 2,> 100 µM
same,EC50,P2Y purinoceptor 1 [5],> 100 µM
